The values below come from patent publication EP3782622A1, “ADENOSINE A2B RECEPTOR AGONIST FOR THE TREATMENT OF MUSCU[…]” (Rheinische Friedrich-Wilhelms-Universität Bonn, priority 2019, dated 2021).

Structures are written as SMILES.

Test [1] concerns humanen Skelettmuskel-Explantaten. Briefly: Endogenous respiration (Oxygraph 2K): oxygen consumption of human skeletal muscle explants. It is filed as cell-based. The following applies: treated 15 min before measurement. How it is done:
(§1) Skelettmuskelzellen oder -gewebe wurden 15 Minuten vor den […] Messungen wie angegeben behandelt (Oxygraph 2K; Oroboros Instruments). Die Proben wurden in die Oxygraphenkammer mit 2 ml Inkubationsmedium (0,5 mM Ethylenglycol-bis(aminoethylether)-N,N,N',N'-tetraessigsäure (EGTA), 3 mM MgCl2 · 6 H2O, 60 mM K-Lactobionat, 20 mM Taurin, 10 mM KH2PO4, 20 mM 2-(4-(2-Hydroxyethyl)-1-piperazinyl)-ethansulfonsäure (HEPES), 110 mM Saccharose und 1 g/l Bovines Serumalbumin (BSA), pH 7,1) gebracht. In vitro-Atmungswerte wurden bei Erreichen eines stationären Zustandes aufgezeichnet, gefolgt von der Zugabe von Substraten (Zustand 1: endogen; Zustand 2: Adenosindiphosphat (ADP); Zustand 3: Succinat; Zustand 4: Oligomycin; entkoppelt: 2,4-dinitrophenol, carbonylcyanide p-trifluoromethoxyphenyl-hydrazine (FCCP)). Die Atmungsraten wurden auf den Gesamtproteingehalt normalisiert.

Test [2] deals with murinem Muskelgewebe. Description: Endogenous respiration (Oxygraph 2K): oxygen consumption of murine muscle tissue ex vivo. It is filed as cell-based, murin. The following applies: Abbildung 2. How it is done:
as §1

In test [3] the test system is primären humanen Skelettmuskelzellen. Description: Endogenous respiration (Oxygraph 2K): oxygen consumption of primary human skeletal muscle cells. It is filed as cell-based. The method, then:
as §1

In test [4] the test system is primäre humane Skelettmuskelzellen. Description: Glucose uptake test (abcam kit ab136956). It is filed as cell-based. The following applies: primary human skeletal muscle cells, Abbildung 5. The text has this: Die Glukoseaufnahme wurde mit murinen und humanen SKM-Zellen unter Verwendung des Glukoseaufnahmekits von abcam (ab136956) (abcam plc., Cambridge, UK) nach Herstellerangaben gemessen.

Test [5] deals with Mäusen. Description: Muscle mass in mice after treatment (muscle analysis/sarcopenia). It is filed as in vivo, Mäuse. The following applies: Abbildung 6; for Muskelmasse: mice, 1 mg/kg intraperitoneal once daily for four weeks. The source says:
(§2) WT männliche C57BL/6 Mäuse wurden von Janvier gekauft. A2B-/- Mäuse wurden von M. Idzko, Freiburg, Deutschland, zur Verfügung gestellt. ATA2B-KO (A2Bfloxed/floxed;AdipoCre+) und Con-A2B (A2Bfloxed/floxed;AdipoCre-) Mäuse wurden durch Züchtung von A2Bfloxed/floxed Mäusen (erzeugt von Holger K. Eltzschig) mit Adiponectin-Cre (Jackson Laboratories) Mäusen zur Herstellung von A2Bfloxed;AdipoCre+ heterozygoten Mäusen erzeugt. Heterozygote Mäuse wurden mit A2Bfloxed/floxed gezüchtet. Männliche Wurfgeschwister wurden zufällig experimentellen Gruppen zugeordnet. Halbfettdiät (HFD, 60% Energie aus Fett) und Kontrolldiät wurden von ssniff Spezialdiäten GmbH (Soest, DE) gekauft. Mäuse wurden in einem täglichen Zyklus von 12 Stunden Licht (0600 bis 1800) und 12 Stunden Dunkelheit (1800 bis 0600) bei 23 ± 1°C gehalten und erhielten freien Zugang zu Futter und Wasser. Für die Muskelanalyse/Sarkopenie wurden Mäusen vier Wochen lang einmal täglich intraperitoneal mit 1 mg/kg 2-({6-Amino-3,5-dicyano-4-[4-(cyclopropylmethoxy)-phenyl]-pyridin-2-yl}sulfanyl)-acetamid (Bay 60-6583) injiziert.

In test [6] the test system is Mäusen. Briefly: Muscle strength of mice after treatment. It is filed as in vivo, Mäuse. The following applies: Abbildung 8; for Muskelkraft: mice.
From the text: as §2
Extensor digitorum longus (EDL) Muskeln aus den Hinterbeinen von Mäusen wurden von Sehne zu Sehne isoliert, in eine wässrige Pufferlösung aus Krebs-Puffer (118 mM NaCl, 3,4 mM KCl, 0,8 mM MgSO4, 1,2 mM KH2PO4, 11,1 mM Glukose, 25 mM NaHCO3, 2,5 mM CaCl2) getaucht und bei Raumtemperatur mit Carbogen (ein Gasgemisch aus 5 Volumenteilen Kohlenstoffdioxid (CO2) und 95 Volumenteilen Sauerstoff (O2)) umspült. Die Muskeln wurden zwischen der Klemme eines Hebelarms und dem Haken eines Kraftaufnehmers eines Myographen (SI Instruments) ausgerichtet. Dann wurden die Muskeln gedehnt, bis ein einzelner Impuls während einer Zuckungsstimulation die maximale Kraft hervorrief. Es wurden Zuckungsstimulationen (2 V, 1 ms) für […] aufgezeichnet und die Kraft gemessen. Die gesamte Muskelquerschnittsfläche wurde geschätzt, indem die Muskelmasse durch das Produkt aus der Muskellänge, dem Verhältnis von […] (0,44 bei EDL) und der Dichte des Säugetiermuskels (1,06 mg/mm^3) dividiert wurde. […]

Test [7] relates to Satellitenzellen. Briefly: Isolation and amount of satellite cells from treated old mice. It is filed as in vivo, Mäuse. The following applies: 1 mg/kg once daily for four weeks.
From the text: as §2, with “injiziert. […]” for “injiziert.”

Turning to `N#Cc1c(N)nc(SCC(N)=O)c(C#N)c1-c1ccc(OCC2CC2)cc1` [BAY 60-6583, 2-({6-Amino-3,5-dicyano-4-[4-(cyclopropylmethoxy)-phenyl]pyridin-2-yl}sulfanyl)-acetamid], the “Sauerstoffverbrauch in Bezug auf die Gewebemasse” value is “signifikant erhöht” in test [1] (Abbildung 1) and “signifikant gesteigert” in test [1] (Abbildung 1, listed as Bay 60-6583). Moreover, the Sauerstoffverbrauch result in test [2] is given as “signifikant erhöht”. Besides, the “Sauerstoffverbrauch in Bezug auf das veratmete Protein” value is “signifikant erhöht” in test [3] (Abbildung 4) and “signifikant gesteigert” in test [3] (Abbildung 4, listed as Bay 60-6583). The “Aufnahme von Glukose” value in test [4] is listed as “signifikant erhöht”; in test [4] (listed as Bay 60-6583), “signifikant gesteigert”. Also, the Muskelmasse entry in test [5] (1 mg/kg) is “dem alterungsbedingten Verlust von Muskelmasse entgegenwirkt”; in test [5] (listed as Bay 60-6583, 1 mg/kg) it was “signifikant gesteigert”. For the same compound, the “Muskelmasse, treated aged mice compared with young controls” value in test [5] (treated aged (20 months) mice vs young (2 months) control animals) is reported as “vergleichbare Muskelmasse wie junge (2 Monate alte) Kontrolltiere”. Besides, the Muskelkraft result is “signifikant erhöht” in test [6] and “signifikant gesteigert” in test [6] (listed as Bay 60-6583). The “Muskelkraft, treated aged mice compared with young controls” value in test [6] (treated aged mice vs young control animals) is on record as “so viel Kraft wie junge Kontrolltiere”. In addition, the “Menge an Satellitenzellen” value in test [7] (Abbildung 9, 1 mg/kg) is “erhöht”; in test [7] (Abbildung 9, listed as Bay 60-6583, 1 mg/kg), “signifikant erhöht”.
